We go through five compounds from US20140194559A1, “Novel Inhibitor Compositions and Methods of Use” (NuFarm UK Limited, priority 2011, published 2014).

Series [1] is described as follows: Solubility of antipolymerants in ethylbenzene. In kind it is physicochemical. Particulars: solvent ethylbenzene. The source says: (§1) In order to highlight the increased antipolymerant content that can be achieved, the solubility of three antipolymerants in ethylbenzene, a widely used solvent for supplying antipolymerants for styrene monomer production, is compared with concentration when the antipolymerant is supplied as a SC. The comparative data for the antipolymerants are set out in Table 1.
Thus, it is clear that, for all three active components, the concentration achieved in the SC is far greater than that observed in ethylbenzene. The same concentration could also be obtained when two of the active components were combined in the SC. By contrast, combining more than one of the actives in ethylbenzene, the total concentration of actives was reduced. Thus, for a combination of 2,5-di-tert-butyl-p-benzoquinone and dibenzylhydroxylamine, the total concentration in ethylbenzene was <10 w/w %.

Series [2] is described as follows: Maximum concentration of actives in suspension concentrate (SC). In kind it is physicochemical. Particulars: for Concentration in SC: maximum concentration of active in suspension concentrate. How it is done: To the liquid carrier (approximately 80% of the required amount) is added the required quantity of the dispersing agent and the mixture is stirred until a fully homogeneous solution is formed. Under high shear conditions, the desired amount of active inhibitor component is added to the dispersant solution and the formulation is stirred until it becomes completely homogeneous. The resulting dispersed active inhibitor is transferred to a bead mill where it is continuously milled until the required particle size distribution is obtained. Desirably, the particle size is less than 10 microns. Under additional stirring, the remaining liquid carrier, optionally a preservative agent and optionally a thickening agent are added to the milled formulation until a homogeneous suspension concentrate is formed. The required quantities of the components of the formulation are in each case determined with reference to the scale of the process which is being conducted.
as §1
(§2) This effect is further illustrated by reference to a further example wherein a stable suspension concentrate of phenothiazine (PTZ), containing 40 percent by weight of the PTZ component, was easily obtained using the above methodology. PTZ is a widely used inhibitor in (meth)acrylic acid and ester processes, but has low solubility in most solvents that are compatible with such processes. In most industrial cases, PTZ is supplied in its solid form and dissolved in the monomer to form a dilute solution for dosing into the monomer purification process. Thus, for example, in laboratory tests, PTZ had the following solubilities: acrylic acid (2.6 w/w %), methacrylic acid (2.4 w/w %), n-butyl acrylate (9.7 w/w %), methyl methacrylate (8.4 w/w %).

The conditions of series [3]: hazard classification; cited from earlier work.
Series [4] in a line: Batch tests: polymer content in refluxing styrene monomer. Particulars: for Effect: batch test, styrene, 120° C., inhibitor or retarder. As to the method: The particular ethylenically unsaturated compound used in the tests was a vinyl aromatic monomer, specifically styrene monomer. The use of a vinyl aromatic monomer for this purpose is illustrative and is not intended to exclude other ethylenically unsaturated compounds from the scope of this invention.
Batch tests (the results of which are detailed in Table 2), and continuous flow tests were carried out in order to represent different types of processing conditions which can occur in the industrial processing of ethylenically unsaturated compounds. These tests compare the compositions of the present invention with compositions of the prior art.
The batch test was designed in order to show whether a test composition is an inhibitor or a retarder. The tests were carried out in styrene monomer refluxing under reduced pressure at 120° C. in order to reduce the presence of atmospheric oxygen to such low levels as can be expected in a commercial styrene monomer purification plant.
For the batch tests the vinyl aromatic monomer composition containing the test substances was heated to 120° C. and stirred under reduced pressure so that it refluxed at the test temperature. Samples were taken at intervals of time and tested for polymer content in order to assess the effectiveness of polymerisation control.

Series [5] in a line: Laboratory solubility tests of PTZ in monomers. The format is physicochemical.
Excerpt: as §2

Series [6] in a line: Acrylic acid tube test (inhibition period). Particulars: 25 ppm inhibitor, lean air (5% oxygen in nitrogen), 120° C., until first white precipitate. As to the method:
In a typical test, a series of tubes containing acrylic acid and inhibitor was sparged with a lean air mixture (5% oxygen in nitrogen). These tubes were then heated at 120° C. until the first signs of polymerisation were detected (by means of the formation of white precipitate), and this was determined as the inhibition period.

On to `CC(C)(C)C1=CC(=O)C(C(C)(C)C)=CC1=O` [BQ, 2,5-di-tert-butyl-p-benzoquinone], for which the Solubility in ethylbenzene in series [1] is on record as 11.9 w/w %. The “Concentration in SC” value in series [2] is 45.0 w/w %. Also, in series [3], the “Dermal Toxicity” value is “No”, the “Oral Toxicity” value is listed as “No” and the “Toxic by Inhalation” value is reported as “No”.

As to `ON(Cc1ccccc1)Cc1ccccc1` [DBHA, N,N-dibenzyl hydroxylamine], the Solubility in ethylbenzene in series [1] was determined as 1.6 w/w %. Further, in series [2], the “Concentration in SC” value is on record as 45.0 w/w %. Also, in series [3], the “Dermal Toxicity” value was “No”, the “Oral Toxicity” value is reported as “No” and the “Toxic by Inhalation” value is given as “No”.

Consider `CCC(C)c1cc([N+](=O)[O-])cc([N+](=O)[O-])c1O` (stereo not shown) [DNBP, 4,6-Dinitro-2-sec-butyl phenol], for which the Effect result in series [4] is “retarder”; in series [4] (listed as Control 1) it was “Retarder”. Moreover, the “Polymer (ppm) @ (time) 180 mins” value in series [4] (styrene refluxing under reduced pressure at 120° C., 180 mins, component doses in ppm as in table) is 4000 ppm. Also, the “Dermal Toxicity” value in series [3] is on record as “Yes”.

`CC(C)(C)c1cc(O)c(C(C)(C)C)cc1O` [HQ, 2,5-di-tert-butyl hydroquinone]: the Solubility in ethylbenzene in series [1] is given as 6.7 w/w %. Moreover, in series [2], the “Concentration in SC” value was determined as 45.0 w/w %.

On to `c1ccc2c(c1)Nc1ccccc1S2` [PTZ, phenothiazine], for which, in series [2] (stable suspension concentrate), the “PTZ content of stable suspension concentrate” value amounted to 40 percent by weight. Further, the “solubility in acrylic acid” value in series [5] (acrylic acid) was 2.6 w/w %. For the same compound, the “solubility in methacrylic acid” value in series [5] (methacrylic acid) was found to be 2.4 w/w %. Besides, the “solubility in methyl methacrylate” value in series [5] (methyl methacrylate) turned out to be 8.4 w/w %. Moreover, in series [5] (n-butyl acrylate), the “solubility in n-butyl acrylate” value stood at 9.7 w/w %. In addition, in series [6], the “Inhibition Period” value is recorded as 531 min.
